Measured values: patent publication US20240243319A1, “AQUEOUS ELECTROLYTE, SALTS USED THEREIN, AND REDOX FLOW BATTERY USING SAID AQUEOUS ELECTROLYTE” (MITSUBISHI CHEMICAL CORPORATION, priority 2021, published 2024)

Experiment: Dissolution test in 1 M chloride salt aqueous solutions
Format: physicochemical
Settings: potassium chloride, lithium chloride and ammonium chloride aqueous solution, room temperature
[1] = 0.01 mmol added to 10 mL each of 1 M sodium chloride

**Q.** With `O=C1c2ccccc2C(=O)c2c1cc(S(=O)(=O)[O-])c(O)c2O.[Na+]` [Alizarin Red S, reference compound] as the compound, how does the “dissolution in aqueous salt solutions” value [1] read?
**A.** did not dissolve

**Q.** For `O=C(O)c1ccc2nc3cc(O)c(O)cc3nc2c1` [compound represented by formula (1a-1)], which “dissolution in aqueous salt solutions” value (0.05 mmol added to 10 mL each of 1 M sodium chloride) is on record?
**A.** did not dissolve

**Q.** For `O=C(O)c1ccc2c(c1)C(=O)c1c(O)ccc(O)c1C2=O` [compound represented by formula (2a-1)], which “dissolution in aqueous salt solutions” value [1] is on record?
**A.** did not dissolve
